The values below come from patent US4742049A, “Semisynthetic erythromycin antibiotics” (Abbott Laboratories, priority 1986, dated 1988).

≈ marks a conversion by molar mass, not a printed value. Read-outs that look alike come from different tables or passages of the source.

One data set relates to Haemophilus influenzae. Put plainly: MIC against strains of Haemophilus influenzae. It is filed as cell-based. As for the experimental part: Erythromycin A was used for this purpose.
After incubation, each disk is read.
In the manner of Example 23, the efficacy of compounds of this invention were tested against numerous strains of Haemophilus influenzae.

For the next data set, the system named is Staph. aureus. As to the kind of experiment: antimicrobial spectrum, agar dilution MIC. It is filed as cell-based. The note with it: Staphylococcus aureus, BHI agar, 20-24 hours, read-out: MIC. As for the experimental part: (§1) Twelve petri dishes containing successive aqueous dilutions of the test compound mixed with 10 ml of sterilized Brain Heart Infusion agar (Difco 0418-01-5) are prepared. Each plate is inoculated with 1:100 (or 1:10 for slow-growing strains, primarily Micrococcus and Streptococcus) dilutions of up to 32 different microorganisms, using a Steers replicator block. The inoculated plates are incubated at 35°-37° C. for 20-24 hours. In addition, a control plate, using BHI agar containing no test compound, is prepared and incubated at the beginning and end of each test.
(§2) An additional plate containing a compound having known susceptibility patterns for the organisms being tested and belonging to the same antibiotic class as the test compound is also prepared and incubated as a further control, as well as to provide test-to-test comparability.
(§3) After incubation, each disk is read. The MIC is defined as the lowest concentration of drug yielding no growth, a slight haze, or sparsely isolated colonies on the inoculum spot as compared to the growth control.

In another data set the test system is Staph. epidermidis. Put plainly: antimicrobial spectrum, agar dilution MIC. The note with it: Staphylococcus epidermidis, strain 3519; BHI agar, 20-24 hours; read-out: MIC. It is filed as cell-based. As for the experimental part: as §1, §2, §3
In the next data set the test system is Strep. faecium. Put plainly: antimicrobial spectrum, agar dilution MIC. The format is cell-based. The note with it: Enterococcus faecium, ATCC8043; strain ATCC 8043; BHI agar, 20-24 hours; read-out: MIC. As for the experimental part:
as §1, §2, §3

Another data set has as its system Strep. pyogenes. Put plainly: antimicrobial spectrum, agar dilution MIC. It is filed as cell-based. To be noted: Streptococcus pyogenes, BHI agar, 20-24 hours, read-out: MIC. As for the experimental part:
as §1, §2, §3

The next data set concerns E. coli. As to the kind of experiment: antimicrobial spectrum, agar dilution MIC. It is filed as cell-based. The note with it: Escherichia coli, strain JUHL; BHI agar, 20-24 hours.
Data set [1] relates to gut contractions (stomach, duodenum, jejunum). The note with it: dog, in vivo, iv, 4 mg/kg. On the procedure: Compounds of this invention have been tested for gastrointestinal stimulating activity in a dog model at 4 mg/kg intravenously. Contractions in the gut were recorded with surgically implanted strain gauges. […] Ratios were calculated for the stomach, duodenum and jejunum, and a final arithmetic mean index was calculated and reported in Table 1.

Where [2] appears, read: Haemophilus influenzae, ATCC9006, strain ATCC 9006, read-out: MIC.
Where [3] appears, read: Haemophilus influenzae, ATCC9795, strain ATCC 9795, read-out: MIC.
Setting [4] is: Haemophilus influenzae, ATCC10211, strain ATCC 10211, read-out: MIC.
Setting [5] is: Haemophilus influenzae, ATCC19418, strain ATCC 19418, read-out: MIC.
The mark [6] stands for this setting: Haemophilus influenzae, strain 504, read-out: MIC.
The mark [7] stands for this setting: Haemophilus influenzae, strain 519A, read-out: MIC.
[8] abbreviates: Haemophilus influenzae, strain 566A, read-out: MIC.
[9] abbreviates: Haemophilus influenzae, strain 588A, read-out: MIC.
The mark [10] stands for this setting: Haemophilus influenzae, strain 632A, read-out: MIC.
Setting [11] is: Haemophilus influenzae, strain 667A, read-out: MIC.
Setting [12] is: Haemophilus influenzae, strain 747C, read-out: MIC.
[13] abbreviates: Haemophilus influenzae, strain 751, read-out: MIC.
[14] abbreviates: Haemophilus influenzae, strain 1177, read-out: MIC.
The mark [15] stands for this setting: Haemophilus influenzae, strain 1435, read-out: MIC.
The mark [16] stands for this setting: Haemophilus influenzae, strain 5036B, read-out: MIC.
Setting [17] is: Haemophilus influenzae, strain DILL AMP R, read-out: MIC.
Where [18] appears, read: Haemophilus influenzae, strain SOL AMP R, read-out: MIC.
[19] abbreviates: Haemophilus influenzae, strain SPK AMP R, read-out: MIC.

Consider “11-deoxy-6-O-methyl erythromycin A 11,12-(N-3-hydroxyethyl)cyclic carbamate [Example 16]”, for which the MIC with Haemophilus influenzae (strain 504) was 1 µg/mL; in the data set with Haemophilus influenzae (strain 519A), “.5 µg/mL”; in the data set on Haemophilus influenzae (strain 566A), 1 µg/mL; against Haemophilus influenzae (strain 588A), “.5 µg/mL”; in the data set with Haemophilus influenzae (strain 632A), 1 µg/mL; against Haemophilus influenzae (strain 667A), 1 µg/mL. Besides, the MIC entry in the data set with Haemophilus influenzae (strain 747C) was “.5 µg/mL”; in the data set on Haemophilus influenzae (strain 751) it was 1 µg/mL; against Haemophilus influenzae (strain 1177) it was 1 µg/mL; with Haemophilus influenzae (strain 1435), “.25 µg/mL”; in the data set with Haemophilus influenzae (strain 5036B) it was 1 µg/mL; with Haemophilus influenzae (strain ATCC 9006), “.5 µg/mL”. Besides, the MIC entry against Haemophilus influenzae (strain ATCC 9795) was “.5 µg/mL”; in the data set with Haemophilus influenzae (strain ATCC 10211), 1 µg/mL; in the data set with Haemophilus influenzae (strain ATCC 19418), “.5 µg/mL”; with Haemophilus influenzae (strain DILL AMP R), “.5 µg/mL”; in the data set on Haemophilus influenzae (strain SOL AMP R), “.5 µg/mL”; against Haemophilus influenzae (strain SPK AMP R), 1 µg/mL.

On to `CC[C@H]1OC(=O)[C@H](C)[C@@H](O[C@H]2C[C@@](C)(OC)[C@@H](O)[C@H](C)O2)[C@H](C)[C@@H](O[C@@H]2O[C@H](C)C[C@H](N(C)C)[C@H]2O)[C@](C)(OC)C[C@@H](C)C(=O)[C@H](C)[C@H]2N(CCCOCCOC)C(=O)O[C@]12C` [Example 1, 11-deoxy-6-O-methylerythromycin A-11,12-(N-methoxyethoxypropyl)cyclic carbamate], for which the MIC in the data set with Staph. aureus (ATCC6538P, strain ATCC 6538P) is 0.06 µg/mL (≈ 0.0675 µM); in the data set on Staph. aureus (strain CMX 686B), 0.12 µg/mL (≈ 0.135 µM); in the data set with Staph. epidermidis it was 0.06 µg/mL (≈ 0.0675 µM); with Strep. faecium, 0.06 µg/mL (≈ 0.0675 µM); in the data set on Strep. pyogenes (strain 930), 64 µg/mL (≈ 72 µM); in the data set with Strep. pyogenes (strain EES61), 0.06 µg/mL (≈ 0.0675 µM). In the data set on E. coli, this compound came in with an MIC of 16 µg/mL (≈ 18 µM).

Regarding `CC[C@H]1OC(=O)[C@H](C)[C@@H](O[C@H]2C[C@@](C)(OC)[C@@H](O)[C@H](C)O2)[C@H](C)[C@@H](O[C@@H]2O[C@H](C)C[C@H](N(C)C)[C@H]2O)[C@](C)(OC)C[C@@H](C)C(=O)[C@H](C)[C@H]2N(CCCO)C(=O)O[C@]12C` [Example 15, 11-deoxy-6-O-methyl erythromycin A 11,12-(N-3-hydroxypropyl)cyclic carbamate], the MIC with Haemophilus influenzae (setting [2]) was 0.5 µg/mL (≈ 0.602 µM); with Haemophilus influenzae (setting [3]), 0.5 µg/mL (≈ 0.602 µM); in the data set with Haemophilus influenzae (setting [4]), 1 µg/mL (≈ 1.2 µM); in the data set on Haemophilus influenzae (setting [5]), 1 µg/mL (≈ 1.2 µM); in the data set with Haemophilus influenzae (setting [6]), 1 µg/mL (≈ 1.2 µM); with Haemophilus influenzae (setting [7]), 0.5 µg/mL (≈ 0.602 µM). For the same compound, the MIC in the data set with Haemophilus influenzae (setting [8]) worked out at 1 µg/mL (≈ 1.2 µM); with Haemophilus influenzae (setting [9]), 1 µg/mL (≈ 1.2 µM); in the data set with Haemophilus influenzae (setting [10]) it was 1 µg/mL (≈ 1.2 µM); in the data set on Haemophilus influenzae (setting [11]), 1 µg/mL (≈ 1.2 µM); with Haemophilus influenzae (setting [12]), 0.5 µg/mL (≈ 0.602 µM); in the data set with Haemophilus influenzae (setting [13]), 1 µg/mL (≈ 1.2 µM). In addition, the MIC in the data set with Haemophilus influenzae (setting [14]) was found to be 1 µg/mL (≈ 1.2 µM); in the data set with Haemophilus influenzae (setting [15]), 0.5 µg/mL (≈ 0.602 µM); in the data set on Haemophilus influenzae (setting [16]) it was 1 µg/mL (≈ 1.2 µM); in the data set with Haemophilus influenzae (setting [17]), 0.5 µg/mL (≈ 0.602 µM); in the data set with Haemophilus influenzae (setting [18]), 0.5 µg/mL (≈ 0.602 µM); with Haemophilus influenzae (setting [19]), 1 µg/mL (≈ 1.2 µM).

For `CC[C@H]1OC(=O)[C@H](C)[C@@H](O[C@H]2C[C@@](C)(OC)[C@@H](O)[C@H](C)O2)[C@H](C)[C@@H](O[C@@H]2O[C@H](C)C[C@H](N(C)C)[C@H]2O)[C@](C)(O)C[C@@H](C)C(=O)[C@H](C)[C@H]2N(C)C(=O)O[C@]12C` [Example 19, 11-deoxyerythromycin A 11,12-(N-methyl)cyclic carbamate], the “Gastrointestinal Motility Index” value in data set [1] is 5.83.

Consider `CC[C@H]1OC(=O)[C@H](C)[C@@H](O[C@H]2C[C@@](C)(OC)[C@@H](O)[C@H](C)O2)[C@H](C)[C@@H](O[C@@H]2O[C@H](C)C[C@H](N(C)C)[C@H]2O)[C@](C)(OC)C[C@@H](C)C(=O)[C@H](C)[C@H]2N(CCCN(C)C)C(=O)O[C@]12C` [Example 12, 11-deoxy-6-O-methyl erythromycin A 11,12-[N-(3-dimethylamino)propyl]cyclic carbamate], for which the MIC in the data set on Haemophilus influenzae (setting [2]) stood at 0.5 µg/mL (≈ 0.583 µM); in the data set on Haemophilus influenzae (setting [3]), 0.5 µg/mL (≈ 0.583 µM); with Haemophilus influenzae (setting [4]), 1 µg/mL (≈ 1.17 µM); in the data set on Haemophilus influenzae (setting [5]) it was 1 µg/mL (≈ 1.17 µM); in the data set on Haemophilus influenzae (setting [6]), 1 µg/mL (≈ 1.17 µM); in the data set with Haemophilus influenzae (setting [7]), 0.5 µg/mL (≈ 0.583 µM). Moreover, the MIC was found to be 1 µg/mL (≈ 1.17 µM) with Haemophilus influenzae (setting [8]); 0.5 µg/mL (≈ 0.583 µM) with Haemophilus influenzae (setting [9]); 0.5 µg/mL (≈ 0.583 µM) in the data set with Haemophilus influenzae (setting [10]); 0.5 µg/mL (≈ 0.583 µM) in the data set with Haemophilus influenzae (setting [11]); 0.5 µg/mL (≈ 0.583 µM) in the data set with Haemophilus influenzae (setting [12]); 0.5 µg/mL (≈ 0.583 µM) in the data set on Haemophilus influenzae (setting [13]). The MIC was 0.5 µg/mL (≈ 0.583 µM) in the data set on Haemophilus influenzae (setting [14]); 0.25 µg/mL (≈ 0.291 µM) in the data set on Haemophilus influenzae (setting [15]); 1 µg/mL (≈ 1.17 µM) in the data set on Haemophilus influenzae (setting [16]); 0.5 µg/mL (≈ 0.583 µM) in the data set on Haemophilus influenzae (setting [17]); 0.5 µg/mL (≈ 0.583 µM) in the data set with Haemophilus influenzae (setting [18]); 0.5 µg/mL (≈ 0.583 µM) in the data set on Haemophilus influenzae (setting [19]).

On to `CC[C@H]1OC(=O)[C@H](C)[C@@H](O[C@H]2C[C@@](C)(OC)[C@@H](O)[C@H](C)O2)[C@H](C)[C@@H](O[C@@H]2O[C@H](C)C[C@H](N(C)C)[C@H]2O)[C@](C)(O)C[C@@H](C)C(=O)[C@H](C)[C@H]2NC(=O)O[C@@]21C` [Example 18, 11-deoxyerythromycin A 11,12-cyclic carbamate], for which the “Gastrointestinal Motility Index” value in data set [1] is 3.60.
